Assays:
[1] = target: muscarinic acetylcholine receptors; assay: inhibition of specific binding of ^3 H-Oxotremorine-M (^3 H-Oxo) to rat cortex; design: species or system rat (male Wistar); details: ^3 H-Oxotremorine 1.0 nM, 30 min, 25° C.
Source text: The pharmacological properties of the compounds of the invention can be illustrated by determining their capability to inhibit the specific binding of ^3 H-Oxotremorine-M (^3 H-Oxo). Birdsdall N. J. M., Hulme E. C., and Burgen A. S. V. (1980). "The Character of Muscarinic Receptors in Different Regions of the Rat Brain". Proc. Roy. Soc. London (Series B) 207,1.
^3 H-Oxo labels muscarinic receptor in the CNS (with a preference for agonist domains of the receptors). Three different sites are labeled by ^3 H-Oxo. […] Using the present experimental conditions only the high and medium affinity sites are determined.
The inhibitory effects of compounds on ^3 H-oxo binding reflects the affinity for muscarinic acetylcholine receptors.
All preparations are performed at 0°-4° C. unless otherwise indicated. Fresh cortex (0.1-1 g) from male Wistar rats (150-250 g) is homogenized for 5-10 s in 10 mL […] Hepes pH: 7.4, with an Ultra-Turrax homogenizer. The homogenizer is rinsed with 10 mL of buffer and the combined suspension centrifuged for 15 min. at 40,000×g. The pellet is washed three times with buffer. In each step the pellet is homogenized as before in 2×10 mL of buffer and centrifuged for 10 min. at 40,000×g.
The final pellet is homogenized in 20 mM Hepes pH: 7.4 (100 mL per g of original tissue) and used for binding assay. Aliquots of 0.5 mL is added 25 μL of test solution and 25 μL of ^3 H-Oxotremorine (1.0 nM, final concentration) mixed and incubated for 30 min. at 25° C. Non-specific binding is determined in triplicate using arecoline (1 μg/mL, final concentration) as the test substance. After incubation samples are added 5 mL of ice-cold buffer and poured directly onto Whatman GF/C glass fiber filters under suction and immediately washed 2 times with 5 mL of ice-cold buffer. The amount of radioactivity on the filters are determined by conventional liquid scintillation counting. Specific binding is total binding minus non specific binding.
Test substances are dissolved in 10 mL water (if necessary heated on a steam-bath for less than 5 min.) at a concentration of 2.2 mg/mL. 25-75% inhibition of specific binding must be obtained before calculation of IC50. The test value will be given as IC50 (the concentration (nM) of the test substance which inhibits the specific binding of ^3 H-oxo by 50%).
IC50 =(applied test substance concentration)×(Cx /Co
where Co is specific binding in control assays and Cx is the specific binding in the test assay. (The calculations assume normal mass-action kinetics).

5-HT1A receptor = details: only at the 5-HT1A and dopamine receptors; cited from earlier work
dopamine receptors = details: only at the 5-HT1A and dopamine receptors; cited from earlier work
[2] = system: M1-sites (muscarinic receptors); details: cited from earlier work

Structure (SMILES) | IC50 [1] | further results
FC(F)(F)CCCSc1nccnc1O[C@H]1CN2CCC[C@@H]1C2 (relative stereo) [Compound 35, (±)-endo-2-(4,4,4-Trifluorobutylthio)-3-(1-azabicyclo[3.2.1]octyl-6-oxy)pyrazine] | 3.2 nM | –
CCCCCOc1nccnc1OC1CN2CCC1CC2 (racemic) [Compound 9, (+/-)-3-(1-Pentyloxy)-2-(1-azabicyclo[2.2.2]octyl-3-oxy)pyrazine] | 36 nM | –
CSc1nccnc1OC1CN2CCC1CC2 (racemic) [Compound 13, (+/-)-3-Methylthio-2-(1-azabicyclo[2.2.2]octyl-3-oxy)pyrazine] | 74 nM | –
CCCCSc1nccnc1OCCN(C)C [Compound 17] | 17 nM | –
CCCCCCSc1nccnc1OC1CN2CCC1CC2 (racemic) [Compound 12, (+/-)-3-(1-Hexylthio)-2-(1-azabicyclo[2.2.2]octyl-3-oxy)pyrazine] | 25 nM | –
C/C=C/CSc1nccnc1O[C@H]1CN2CCC[C@@H]1C2 (relative stereo) [Compound 34, (±)-endo-2-(trans-2-Butenylthio)-3-(1-azabicyclo[3.2.1]octyl-6-oxy)pyrazine] | 2 nM | –
O=C1CC2(CCCC2)CC(=O)N1CCCCN1CCN(c2ncccn2)CC1 [Buspirone] | – | interaction at 5-HT1A receptors (5-HT1A receptor): reasonable potency; interaction at dopamine receptors (dopamine receptors): reasonable potency
CN1CCC[C@H]1COc1cnccn1 [Compound 28, (S)-2-(1-Methyl-2-pyrrolidinylmethoxy)pyrazine] | > 10000 nM | –
CN1[C@@H]2CC[C@H]1C[C@@H](Oc1cnccn1)C2 [Compound 25, endo-(8-methyl-8-azabicyclo[3.2.1]octyl-3-oxy)pyrazine] | 180 nM | –
CCCCSc1nccnc1O[C@H]1CN2CCC[C@@H]1C2 (relative stereo) [Compound 24, 3-(1-butylthio)-2-[endo-(+,-)-6-(1-azabicyclo[3.2.1]octyloxy)]-pyrazine] | 2.2 nM | –
Clc1cncc(O[C@H]2CN3CCC[C@@H]2C3)n1 (relative stereo) [Compound 22, 6-Chloro-2-[endo-(+,-)-6-(1-azabicyclo[3.2.1]octyloxy)]-pyrazine] | 140 nM | –
CN(C)CCOc1cnccn1 [Compound 26, 2-(2-Dimethylaminoethoxy)pyrazine] | > 1000 nM | –
CCCCSc1nccnc1OCC[N+](C)(C)C [Compound 18, 3-(1-Butylthio)-2-(2-(trimethylamino)ethoxy)pyrazine iodide] | 21 nM | –
CC(C)=CCCSc1nccnc1O[C@H]1CN2CCC[C@@H]1C2 (relative stereo) [Compound 43, (±)-endo-2-(4-Methyl-3-pentenylthio)-3-(1-azabicyclo[3.2.1]octyl-6-oxy)pyrazine] | 8.1 nM | –
CCCSc1cncc(O[C@H]2CN3CCC[C@@H]2C3)n1 (relative stereo) [Compound 39, (±)-endo-2-Propylthio-6-(1-azabicyclo[3.2.1]octyl-6-oxy)pyrazine] | 10 nM | –
CC(C)CSc1nccnc1O[C@H]1CN2CCC[C@@H]1C2 (relative stereo) [Compound 31, (±)-endo-2-(2-Methylpropylthio)-3-(1-azabicyclo[3.2.1]octyl-6-oxy)-pyrazine] | 3.4 nM | –
CCSc1nccnc1O[C@H]1CN2CCC[C@@H]1C2 (relative stereo) [Compound 32, (±)-endo-2-Ethylthio-3-(1-azabicyclo[3.2.1]octyl-6-oxy)pyrazine] | 3.9 nM | –
CCCSc1nccnc1O[C@H]1CN2CCC[C@@H]1C2 (relative stereo) [Compound 29, (±)-endo-2-Propylthio-3-(1-azabicyclo[3.2.1]octyl-6-oxy)pyrazine] | 1.7 nM | –
COCCSc1nccnc1O[C@H]1CN2CCC[C@@H]1C2 (relative stereo) [Compound 41, (±)-endo-2-(2-methoxyethylthio)-3-(1-azabicyclo[3.2.1octyl-6-oxy)pyrazine] | 3.2 nM | –
CCSc1nccnc1OC1CN2CCC1CC2 (racemic) [Compound 14, (+/-)-3-Ethylthio-2-(1-azabicyclo[2.2.2]octyl-3-oxy)pyrazine] | 26 nM | –

Structure (SMILES) | IC50 [1] | further results
CCOc1nccnc1OC1CN2CCC1CC2 (racemic) [Compound 11] | 56 nM | –
FC(F)(F)CSc1nccnc1O[C@H]1CN2CCC[C@@H]1C2 (relative stereo) [Compound 33, (±)-endo-2-(2,2,2,-Trifluoroethylthio)-3-(1-azabicyclo[3.2.1]octyl-6-oxy)pyrazine] | 1.5 nM | –
Cc1nccnc1O[C@H]1CN2CCC[C@@H]1C2 (relative stereo) [Compound 20, 3-Methyl-2-[endo-(+,-)-6-(1-azabicyclo[3.2.1]octyloxy)]-pyrazine] | 245 nM | –
C[N+](C)(C)CCOc1cnccn1 [Compound 27, 2-(2-Trimethylaminoethoxy)pyrazine iodide] | > 1000 nM | –
CCCSc1nccnc1OC1CN2CCC1CC2 (racemic) [Compound 15] | 14 nM | –
FC(F)(F)CSc1cncc(O[C@H]2CN3CCC[C@@H]2C3)n1 (relative stereo) [Compound 40, (±)-endo-2-(2.2.2-Trifluoroethylthio)-6-(1-azabicyclo[3.2.1]octyl-6-oxy)pyrazine] | 60 nM | –
CN1CCN(CC(=O)N2c3ccccc3C(=O)Nc3cccnc32)CC1 [pirenzepine] | – | selectivity for M1-sites [2]: selective for M1 -sites
CCCCCCCSc1nccnc1OC1CN2CCC1CC2 (racemic) [Compound 16] | 39 nM | –
C=CCSc1nccnc1O[C@H]1CN2CCC[C@@H]1C2 (relative stereo) [Compound 36, (±)-endo-2-(2-propenylthio)-3-(1-azabicyclo[3.2.1]octyl-6-oxy)pyrazine] | 0.34 nM | –
CCCCCSc1nccnc1O[C@H]1CN2CCC[C@@H]1C2 (relative stereo) [Compound 30, (±)-endo-2-Pentylthio-3-(1-azabicyclo[3.2.1]octyl-6-oxy)pyrazine] | 4.4 nM | –
c1cnc(O[C@H]2CN3CCC[C@@H]2C3)cn1 [Compound 21, 2-[endo-(+,-)-6-(1-azabicyclo[3.2.1]octyloxy)]-pyrazine] | 26 nM | –
CC(C)CCSc1nccnc1O[C@H]1CN2CCC[C@@H]1C2 (relative stereo) [Compound 37, (±)-endo-2-(3-Methylbutylthio)-3-(1-azabicyclo[3.2.1]octyl-6-oxy)pyrazin] | 1.3 nM | –
CCCCCSc1nccnc1OC1CN2CCC1CC2 (racemic) [Compound 7, (+/-)-3-Pentylthio-2-(1-azabicyclo[2.2.2]octyl-3-oxy)pyrazine] | 16 nM | –
c1cnc(OC2CN3CCC2CC3)cn1 (racemic) [Compound 8, (+/-)-2-(1-Azabicyclo[2.2.2]octyl-3-oxy)pyrazine] | 1040 nM | –
Clc1nccnc1O[C@H]1CN2CCC[C@@H]1C2 (relative stereo) [Compound 19, 3-Chloro-2-[endo-(+,-)-6-(1-azabicyclo[3.2.1]octyloxy)]-pyrazine] | 121 nM | –
C(=Cc1ccccc1)CSc1nccnc1O[C@H]1CN2CCC[C@@H]1C2 (relative stereo) [Compound 42, (±)-endo-2-(3-Phenyl-2-propenylthio)-3-(1-azabicyclo[3.2.1]octyl-6-oxy)pyrazine] | 9.1 nM | –
COc1nccnc1OC1CN2CCC1CC2 (racemic) [Compound 10, (+/-)-3-Methoxy-2-(1-azabicyclo[2.2.2]octyl-3-oxy)pyrazine] | 354 nM | –
CCCCOc1nccnc1O[C@H]1CN2CCC[C@@H]1C2 (relative stereo) [Compound 23, 3-(1-butyloxy)-2-[endo-(+,-)-6-(1-azabicyclo[3.2.1]octyloxy)]-pyrazine] | 4.9 nM | –
FC(F)(F)Oc1ccc(CSc2nccnc2O[C@H]2CN3CCC[C@@H]2C3)cc1 (relative stereo) [Compound 38, (±)-endo-2-(4-Trifluoromethoxybenzylthio)-3-(1-azabicyclo[3.2.1]octyl-6-oxy)pyrazine] | 6.2 nM | –

Source: patent US5888999A, “Method for treating anxiety with muscarinic cholinergic receptor agonists” (Eli Lilly and Company, priority 1997, dated 1999)
